Laboratory results from US4214001A, “1-(4-Acylamino-phenyl)-2-amino-ethanols and salts thereof” (Boehringer Ingelheim GmbH, priority 1977, dated 1980).
Where two headings read alike, the source gives them in different places.

Key:
[1] = system: bronchospasms induced by acetylcholine; test: Bronchospasmolytic activity (method of Konzett et al.), acetylcholine-induced bronchospasm; format: in vivo; details: anesthetized guinea pigs; for ED50: Cavia porcellus, dose which produces a 50% reduction of the bronchospasm, acetylcholine 20 mgm/kg i.v.
Experimental: The compounds were tested on adult guinea pigs of both sexes by the standard pharmacological test method of Konzett et al., Naunyn-Schmiedeberg's Arch. Exp. Path. Pharmakol. 195, 71-74 (1940). The test animals were anesthetized with 1.5 gm/kg urethane i.p. The bronchospasms were induced by injection of 20 mgm/kg of acetylcholine i.v. The test compound was administered intravenously or intraduodenally. From the average values of maximum decrease in bronchoconstriction obtained at various dosage levels, an ED50 i.e. the dose which produces a 50% reduction of the bronchospasm, with confidence limits according to Fieller, Quart. J. Pharm. Phamacol. 17, 117-123 (1944), was calculated by linear regression analysis according to Linder, Statistische Methoden, 4th Ed., 148-162, published by Birkhauser, Basel, Switzerland (1964).

[2] = Acute toxicity, intravenous, LD50; details: mouse, in vivo, i.v., mice, animals which died within 14 days
Experimental: The intravenous toxicity was determined on laboratory mice of both sexes having an average body weight of 20 gm. From the number of animals which died within 14 days at various dosage levels, the median lethal dose (LD50) was calculated by the method of Litchfield and Wilcoxon, supra.

[3] = system: asthma attack induced by acetylcholine aerosol; test: Antiasthmatic activity (method of Kallos et al.), acetylcholine aerosol; format: in vivo, guinea pigs
Experimental: The standard test method of Kallos et al., Acta med. scand. 91, 292 (1937) was used. The test compound was orally administered to adult guinea pigs which were then exposed to an acetylcholine aerosol steam produced with an aerosol nozzle at 1.5 atmospheres gauge from a 0.4% solution of acetylcholine in an aqueous 0.9% sodium chloride solution. A more than three-fold prolongation of the time until onset of the asthma attack in comparision to untreated controls was evaluated as absolute protection. From the number of animals which were protected at various dosages, an ED50, i.e. the dose which gives absolute protection in 50% of the animals, was calculated by the method of Litchfield and Wilcoxon, J. Pahrmacol. Exper. Ther. 96, 99 (1949).

[4] = iv, read-out: ED50 after i.v. administration
[5] = i.d. (intraduodenal), read-out: ED50 after i.d. administration

SMILES	ED50 [1, 4]	ED50 [1, 5]	t/2 after i.v. administration [1]	LD50 at 336 h [2]	ED50 ([3]; Cavia porcellus, po, dose which gives absolute protection in 50% of the animals (more than three-fold prolongation of time until onset of asthma attack), acetylcholine aerosol 0.4%)	t/2 ([3]; p.o., guinea pigs)	Max. effect after min. ([3]; p.o., guinea pigs, time of maximum effect)
CCOC(=O)Nc1c(F)cc(C(O)CNC(C)(C)C)cc1Cl.Cl (stereo not drawn) [A, 1-(4'-ethoxycarbonylamino-3'-chloro-5'-fluoro-phenyl)-2-tert.-butylamino-ethanol hydrochloride]	0.0307 mg/kg	0.0323 mg/kg	60 min	70.2 mg/kg			
CCOC(=O)Nc1c(F)cc(C(O)CNC(C)(C)C)cc1C#N.Cl (stereo not drawn) [B, 1-(4'-ethoxycarbonylamino-3'-cyano-5'-fluoro-phenyl)-2-tert.-butylamino-ethanol hydrochloride]	0.0056 mg/kg	0.007 mg/kg	70 min	97.5 mg/kg	0.0143 mg/kg	150 min	15 to 30 min
CCOC(=O)Nc1ccc(C(O)CNC(C)(C)C)cc1C#N.Cl (stereo not drawn) [C, 1-(4'-ethoxycarbonylamino-3'-cyano-phenyl)-2-tert. butylamino-ethanol hydrochloride]	0.0235 mg/kg	0.0087 mg/kg	> 50 min	67.2 mg/kg			
CCOC(=O)Nc1ccc(C(O)CNC(C)C)cc1C#N.Cl (stereo not drawn) [D, 1-(4'-ethoxycarbonylamino-3'-cyano-phenyl)-2-isopropylamino-ethanol hydrochloride]	0.064 mg/kg		> 50 min	61.9 mg/kg			
